Data from paper PMC5100903, “Tissue Kallikrein Inhibitors Based on the Sunflower Trypsin Inhibitor Scaffold – A Potential Therapeutic Intervention for Skin Diseases” (PLoS ONE, 2016).
Like-named read-outs stand apart in the source and are kept apart here. Positions of bridges follow the written chain, without caps; N, C: chain ends. Residues, ends and D or L forms follow the SMILES beside them.

How the values were obtained:
KLK5 [1] = molecular target: T1, KLK5 (Homo sapiens, UniProt Q9Y337); assay: biochemical; assay type: binding
T1 construct: purchased Novoprotein
T1 sequence (Q9Y337 23-293): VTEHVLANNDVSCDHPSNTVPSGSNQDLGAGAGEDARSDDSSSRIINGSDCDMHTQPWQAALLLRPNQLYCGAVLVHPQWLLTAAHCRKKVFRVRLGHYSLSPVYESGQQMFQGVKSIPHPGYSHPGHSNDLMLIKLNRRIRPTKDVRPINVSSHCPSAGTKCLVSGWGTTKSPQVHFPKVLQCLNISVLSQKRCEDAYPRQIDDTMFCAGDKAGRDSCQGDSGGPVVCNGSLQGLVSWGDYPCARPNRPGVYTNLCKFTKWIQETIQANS
Procedure: ITC experiments were performed on a MicroCal iTC200 calorimeter (GE Healthcare, Uppsala, Sweden) at 298.15 K with a stirring speed of 750 revolutions per minute. Concentrated (450 μM) ligand solutions were injected into protein (KLK5) solution (20 μM, 280 μL sample volume) in the sample cell. Injection volumes were 2 μL for I10H and Analogue 1 and 1 μL for Analogue 2 and 6 with a spacing of 120 seconds between each injection. Concentrations of ligands were determined by dried weight and they were reconstituted to 10 mM stock in H2O. Concentration of KLK5 was determined by UV280 calculated with an extinction coefficient of 38680 and molecular weight of 32KDa (including weight of glycosylation). The protein solution were buffer exchanged using spin column to 1xPBS (137 mM NaCl, 2.7 mM KCl, 4.3 mM Na2HPO4, 1.47 mM KH2PO4 pH 8.0) or 20 mM MES buffer (with 150 mM NaCl, pH 5.5). Ligand stocks were diluted in those buffers (4.5 μL + 95.5 μL buffer), and then equal v/v % of H2O was added to the protein solution after buffer exchange to ensure matching buffer contents. Heat of dilution was undetectable in control experiments. Data were analyzed using OriginLab version 7.0.

KLK5 [2] = molecular target: T1, KLK5; assay: biochemical
Procedure: (§1) All assays were performed on 96-well microplates and the change in relative fluorescence unit (RFU) was measured by fluorescence spectrometer (BMG FLUOstar OPTIMA). The excitation/emission wavelength was 360/460 nm for the substrate Boc-VPR-AMC (Bachem AG, Hauptstrasse, Switzerland) and MeOSuc-AAPV-AMC (Bachem AG, Hauptstrasse, Switzerland) and 485/520 nm for BODIPY_FL casein (Invitrogen, Carlsbad, US). Stock solution of Boc-VPR-AMC was prepared by dissolving the solid in dimethyl sulfoxide to 100 mM and 10 mM for MeOSuc-AAPV. For BODIPY_FL casein, it was reconstituted to 1 mg/mL in 1xPBS. […] The % of inhibition was calculated by the following equation: % of Inhibition=(1−(Sample RFU − Min RFU)/(Max RFU − Min RFU)) X100
(§2) Each inhibition curves were done in triplicates with a minimum of five concentration points fitted. Fitting of each curve was done using SigmaPlot with the Four Parameter Logistic Function and the IC50 calculated. […] All tested compounds were reconstituted to stock solution in water.
The diluent for all the tested compounds, protein and substrate was 1xPBS. Serially diluted ligands were mixed with diluted recombinant KLK5 (10 nM f/c). The ligand-protein mixtures were incubated on ice for one hour and 19.5 μL was pipetted into a well of a 96-well microplate in triplicates. To start the reaction, 100 μL of the diluted (41.6 μM f/c) Boc-VPR-AMC substrate solution (contained 0.05% v/v Brij35) was added. The plate was incubated at 37°C and the RFU reading was taken 15 minutes after.
There are two previously reported Km values for KLK5 and its substrate Boc-VPR-AMC which allowed the IC50 to Ki conversion. Ki values were calculated according to the Cheng-Prusoff equation Ki= IC50/1+[S]/Km for single site competitive binding.

KLK7 = molecular target: T2, KLK7 (Homo sapiens, UniProt P49862); assay: biochemical
T2 construct: purchased R&D
Procedure: as §1, §2
Recombinant KLK7, KLK8 and KLK14 (>95% purity by SDS-PAGE, endotoxin <0.1 ng/μg, R&D, Minneapolis, U.S.) stocks were diluted with 1xPBS to a concentration of 120 nM. KLK7 and KLK14 were activated by addition of 1 mM f/c CaCl2 (Sigma, Dorset, U.K.), 0.05% v/v Brij35 (Sigma, Dorset, U.K.), 20 nM f/c thermolysin (Sigma, Dorset, U.K.) and incubated at 37°C for 1 hour. The reaction was stopped by addition of ethylenediaminetetraacetic acid (EDTA, 50 mM f/c). KLK8 was activated by addition of 11 nM f/c lysyl endopeptidase (Santa Cruz Biotechnology, Dallas, U.S.) and incubation at 37°C for 0.5 hour. […] The RFU value reached by the thermolysin control was used as the minimum RFU for calculating the % of inhibition for KLK7.
The diluent for all the tested compounds, protein and substrate (except KLK7, which was done with 10 mM Tris pH 7.8) was 1xPBS pH 8.0–8.9. The serially diluted ligands were mixed with diluted bovine trypsin (Sigma, Dorset, U.K.) or activated KLK14, or KLK5, or activated KLK8 or matriptase (catalytic domain only, >90% purity by SDS-PAGE, endotoxin <0.1 ng/μg, R&D, Minneapolis, U.S.) or activated KLK7 or human neutrophil elastase (purified from human plasma, >95% purity by SDS-PAGE, Abcam, Cambridge, U.K.) or porcine pancreatic elastase 1 (Sigma, Dorset, U.K.) or human plasma kallikrein or human plasma plasmin (purified from human plasma, ≥95% purity by SDS-PAGE, BioVision, Milpitas, U.S.). 20μL of the ligand-protein mixture was pipetted to a well of a 96-well microplate in triplicates. The reaction was started by addition of 90–100 μL of the diluted substrate solution (contained 0.05% v/v Brij35) and the plate incubated at 25°C but 37°C for KLK7. RFU reading for each well was taken 6 minutes (trypsin) or 15 minutes (KLK14, KLK5, KLK8, matriptase, human neutrophil elastase, porcine pancreatic elastase 1, plasma kallikrein and plasmin) or 20 hours (KLK7) after substrate addition.

KLK5 [3] = molecular target: T1, KLK5; assay: KLK5 inhibition, fluorogenic Boc-VPR-AMC assay (S1 Table conditions); assay type: biochemical; conditions: read-out: BOC-VPR-AMC IC50 (N = 3); KLK5 10 nM, Boc-VPR-AMC 41.6 μM, 1xPBS pH 8.0, 15 min on ice preincubation, read at 15 min, 25°C
Procedure: as §1, with “The excitation/emission wavelength was 360/460 nm for the substrate Boc-VPR-AMC (Bachem AG, Hauptstrasse, Switzerland) and MeOSuc-AAPV-AMC (Bachem AG, Hauptstrasse, Switzerland) and 485/520 nm for BODIPY_FL casein (Invitrogen, Carlsbad, US).” left out
as §2
The diluent for all the tested compounds, protein and substrate was 1xPBS pH 8.0. Zinc sulfate and p-aminobenzamidine were purchased from Sigma (Dorset, U.K.). […] The ligand-protein mixtures were incubated on ice for 15 minutes and 20 μL was transferred to a well of a 96-well microplate (ThermoScientific, Waltham, U.S.) in triplicate. […] Change in RFU was measured 15 minutes after substrate addition at 25°C.

[4] = amide bond, 42-membered ring, MESNa (NCL via N-S acyl transfer), then NH4HCO3 oxidation, 0.1 M Na phosphate pH 5.8, 55.0 °C, 2 steps

T2 sequence (P49862 30-253): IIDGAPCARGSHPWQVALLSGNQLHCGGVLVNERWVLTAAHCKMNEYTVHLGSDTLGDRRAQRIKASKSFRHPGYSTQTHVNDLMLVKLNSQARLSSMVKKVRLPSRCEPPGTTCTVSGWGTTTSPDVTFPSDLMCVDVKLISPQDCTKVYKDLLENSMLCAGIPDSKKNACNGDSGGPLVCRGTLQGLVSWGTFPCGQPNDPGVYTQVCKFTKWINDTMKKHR

Compound: CC[C@H](C)[C@@H]1NC(=O)[C@H](CO)NC(=O)[C@H](CCCNC(=N)N)NC(=O)[C@H]([C@@H](C)O)NC(=O)[C@@H]2CSSC[C@H](NC(=O)[C@H](Cc3c[nH]cn3)NC(=O)[C@@H]3CCCN3C(=O)[C@@H]3CCCN3C1=O)C(=O)N[C@@H](Cc1ccccc1)C(=O)N1CCC[C@H]1C(=O)N[C@@H](CC(=O)O)C(=O)NCC(=O)N[C@@H](CCCNC(=N)N)C(=O)N2 [Analogue 1] (cyclo(CFPDGRCTRSIPPH); disulfide 1-7)
- Kd (KLK5 [1]): 0.115 µM
- Stoichiometry (N) (KLK5 [1]; ITC, 1xPBS pH 8.0, 25°C): 1.03±0.01
- ΔH (KLK5 [1]; ITC, 1xPBS pH 8.0, 25°C): 1.216 ± 0.021 kcal/mol
- ΔS (KLK5 [1]; ITC, 1xPBS pH 8.0, 25°C): 35.8 cal mol^-1 kelvin^-1
- ΔG (KLK5 [1]; ITC, 25°C): -9.457 kcal/mol
- Ka (KLK5 [1]; ITC, 25°C (Table S2, unit not given)): 8.7E6±2.7E6
- IC50 (KLK5 [2]): 0.065 ± 0.01 µM
- Ki (KLK5 [2]): 0.06 µM
- IC50 (KLK7): 2.29 ± 0.068 µM

Compound: O=S(=O)([O-])[O-].[Zn+2] [Zinc Sulfate]
- IC50 (KLK5 [3]): 2.94 µM

Compound: N=C(N)c1ccc(N)cc1 [p-Aminobenzamidine]
- IC50 (KLK5 [3]): 60.5 µM

Compound: GRCTKSIPPHCFPD
- ring closure, yield after HPLC ([4]; 0.6 mM): 19%

Compound: GRCTKSIPPHCWPD
- ring closure, yield after HPLC ([4]; 0.59 mM): 25%

Compound: GRCTKSIPPHCYPD
- ring closure, yield after HPLC ([4]; 0.6 mM): 19%

Compound: GRCTKSKPPHCFPD
- ring closure, yield after HPLC ([4]; 0.6 mM): 16%

Compound: GRCTRSIPPHCFPD
- ring closure, yield after HPLC ([4]; 0.59 mM): 24%

Compound: GRCTRSIPPHCWPD
- ring closure, yield after HPLC ([4]; 0.58 mM): 24%

Compound: NRCTKSIPPHCFPD
- ring closure, yield after HPLC ([4]; 0.58 mM): 25%
